According to paper PMC7838199, “Color-tunable bioluminescence imaging portfolio for cell imaging” (Scientific Reports, 2021):

molecular target: T1, NanoLuc (Oplophorus gracilirostris, UniProt Q9GV45, A31E/Q38R/Q45L/L54V/A60N/K70R/V71I/A81I/F95D/L99Q/M102K/I117V/P142E/Q151K/Y165I/N193R); test: bioluminescence spectrum in transfected-cell lysate; assay type: cell-based; settings: 50 mM HEPES, pH 7.2; MDA-MB-231 lysate
T1 construct: pcDNA3.1(+) in MDA-MB-231 cells, lysate
T1 sequence (Q9GV45 28-196 with the stated changes): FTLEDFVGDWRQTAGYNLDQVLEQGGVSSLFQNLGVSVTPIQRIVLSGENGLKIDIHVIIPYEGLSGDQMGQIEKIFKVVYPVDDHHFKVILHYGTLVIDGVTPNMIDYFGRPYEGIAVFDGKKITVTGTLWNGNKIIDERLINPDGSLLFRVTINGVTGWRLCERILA

Row | SMILES | bioluminescence spectrum in transfected-cell lysate
1 | O=c1c(Cc2ccccc2)nc2c(-c3ccccc3)[nH]c(-c3ccccc3)cn1-2 [3d] | 3d selectively emits significant BL with NanoLuc

system: T2, Artificial Luciferase 16 (ALuc16); test: bioluminescence, Lineweaver-Burk; assay type: biochemical, synthetic construct; settings: 50 mM HEPES, pH 7.2; 0.1 µM luciferase
T2 construct: designed artificial luciferase; recombinant for the kinetics; cDNA in pcDNA3.1(+) for cell work
From the text: bioluminescence, Lineweaver-Burk on Artificial Luciferase 16 (ALuc16)

Row | Km [µM] | SMILES
2 | 157 | CN(C)c1ccc(/C=C/C=C/c2cn3c(=O)c(Cc4ccccc4)nc-3c(-c3ccccc3)[nH]2)cc1 [2c]
3 | 86.5 | CN(C)c1ccc(/C=C/C=C/C=C/c2cn3c(=O)c(Cc4ccccc4)nc-3c(-c3ccccc3)[nH]2)cc1 [2d]
4 | 68.3 | O=c1c(Cc2ccccc2)nc2c(-c3ccccc3)[nH]c(-c3ccncc3)cn1-2 [3c]

Continued, molecule first:

Row | SMILES | Km [µM]
5 | CN(C)c1ccc(/C=C/c2cn3c(=O)c(Cc4ccc(O)cc4)nc-3c(Cc3ccccc3)[nH]2)cc1 [1b] | 7.9
6 | CN(C)c1ccc(/C=C/C=C/C=C/c2cn3c(=O)c(Cc4ccc(O)cc4)nc-3c(Cc3ccccc3)[nH]2)cc1 [1d] | 70.6
7 | O=c1c(Cc2ccccc2)nc2c(-c3ccccc3)[nH]c(-c3ccccc3)cn1-2 [3d] | 120
8 | Oc1ccc(Cc2nc3c(Cc4ccccc4)nc(-c4ccc(O)cc4)cn3c2O)cc1 [CTZ, coelenterazine] | 38.5
9 | CN(C)c1ccc(/C=C/C=C/c2cn3c(=O)c(Cc4ccc(O)cc4)nc-3c(Cc3ccccc3)[nH]2)cc1 [1c] | 26.1
